Patent US20120231482A1, “METHOD, KIT OR DIAGNOSTIC FOR THE DETECTION OF REAGENTS WHICH INDUCE ALTERED CONTRACTILITY” (THE JOHNS HOPKINS UNIVERSITY, priority 2009, published 2012)

Columns and labels:
actin = molecular target: T1, actin (Rattus norvegicus, UniProt P68035); test: Gel shift assay, reducing/non-reducing western blot of cardiac myofibrils; format: biochemical; conditions: for actin higher molecular weight forms: non-reducing, lost with 5 mM DTT
T1 construct: Rat myofibrillar preparations, as described in [7], were obtained from frozen ventricles (Pel Freez Biologicals); tissue Pel Freez Biologicals; host or cells: myofibrils from frozen rat ventricles
Protocol: FIG. 4. Validation and characterizations of HNO modifications. 1 μg of rat cardiac myofibrils treated with HNO donors or control compounds were separated under reducing or nonreducing conditions and western blots probed for candidate proteins tropomyosin, actin, myosin heavy chain, myosin light chain 1 (n=4). […] Silver stained gel analysis indicated a protein band with […] gel mobility that was lost with DTT.
FIG. 5. Evaluation of the interaction between actin and tropomyosin with NCA treatment. Purified rabbit skeletal tropomyosin (0.03 μg) and isolated rat cardiac myofibrils (1 μg) were treated with NCA or AS and evaluated by 1D non-reducing western blot probing for tropomyosin (A) and actin (B) (n=3). […] (C) Fluorescent DIGE analysis of samples from A and B independent labeled indicates NCA specific band (green) above purified TM (blue) and below AS treated myofibrils (red) (n=3). (D) MS analysis of the same gel region identified both tropomyosin and actin in non-reduced lane but not with DTT treatment (n=2).
Gel shift assay. 10 μg of rat myofibrils/treatment were diluted to 0.5 μg/μl in HEN including 0.1% (w/v) SDS and exposed to a treatment for 20 min at 37° C. Samples were diluted to 0.1 ug/ul in 1×LSD sample buffer, treated with 0, 5 or 100 mM DTT and separated by SDS PAGE. Proteins were silver stained or transferred to nitrocellulose and immunoblotted with primary antibodies for tropomyosin sarcomeric (CH1, Sigma-Aldrich Co., St. Louis, Mo., USA), actin (AC-40, Sigma-Aldrich Co., St. Louis, Mo., USA), myosin light chain 1 (MLM527, Abcam, Cambridge, Mass., USA) or myosin heavy chain (3-48, Abcam, Cambridge, Mass., USA). For some silver stained gel bands of interest in-gel digestion was done following the protocol outlined in Shevchenko et al.. Gel slices of interest were excised from the gels cut into 1 mm^3 pieces. Silver stained gel pieces were destained in 1:1(v/v) 30 mM Potassium ferricyanide and 100 mM Sodium thiosulfate and wash three times with ddH2O. Gel pieces were dehydrated in 100% acetonitrile and reswelled in 10 mM DTT and incubated at 55° C. for 1 hour. After the DTT solution was removed, a solution of 55 mM iodoacetimide was added and gel slices were incubated at room temperature protected from light. Gel slices were then washed 3 times with 50% (v/v) ACN, 25 mM (NH4)HCO3 and then fully dehydrated in 100% ACN and dried in a speed vac. Gel pieces were reswelled in a 12.5 ng/μL trypsin (Promega, Madison Wis. USA) solution containing 25 mM (NH4)HCO3 and incubated at 37° C. for >16 hours. Digested peptides were extracted by addition of 5% (v/v) formic acid and incubation for 15 min followed by addition of an equal volume of 100% ACN and 15 min incubation, this step was repeated and the extracts were combined. […]

intact trabeculae = test: Steady-state force-[Ca2+]i relationship in intact trabeculae (tetanized with ryanodine); format: cell-based, rat; design: [Ca2+]i required for 50% of activation (Ca50): unit not given here
[1] = AS applied to isolated trebecula or skinned muscle preparations

For `[Na+].[Na+].[O-][N+]([O-])=NO` [AS, Angeli's Salt], the “actin higher molecular weight forms” value (actin) was “approximately 80 kDa”, the Ca50 (intact trabeculae; [1]) was “without altering” and the Hill coefficient (intact trabeculae; [1]) was “without altering”. The “maximum force of contraction” value (intact trabeculae; [1]) was “increase”.
With `CC(=O)OC1(N=O)CCCCC1` [NCA, 1-nitrosocyclohexylacetate] the “actin higher molecular weight forms” value (actin) was “approximately 80 kDa”, the “antibody epitope binding of monomeric actin” value (actin; western blot) was “loss of antibody epitope binding” and the Hill (intact trabeculae; NCA 20 μmol/L, intact muscles) was 4.92±0.84. The “[Ca2+]i required for 50% of activation (Ca50)” value (intact trabeculae; NCA 20 μmol/L, intact muscles) was 0.42±0.01 and the “maximal Ca2+-activated force (Fmax)” value (intact trabeculae; NCA 20 μmol/L, intact muscles) was 123±18 mN/mm^2.
